What follows are compounds tested on STAT5 phosphorylation downstream of JAK3 in human YT cells (assay: pSTAT5 cell assay (IL-2 stimulated YT cells, AlphaScreen)). Conditions: IL-2 stimulation, read-out: Inhibition values (IC50) pSTAT5.
Assay type: cell-based
From the text: STAT5 phosphorylation represents one of the proximal events in the signalling cascade downstream of JAK3 activation. Therefore STAT5 phosphorylation is an appropriate readout to assess the mechanistic effect of JAK3 inhibition. Stimulation of human YT cells, an NK-like cell line, with interleukin-2 (IL-2) results in phosphorylation of STAT5 at tyrosine residue 694 (Tyr694) that can be quantitatively measured by immunodetection with specific antibodies and an appropriate detection method, in this case AlphaScreen assay technology.
Human YT cells were grown in RPMI medium (Lonza, BE12-167) with 2 mM L-Glutamine (Invitrogen, 25030-024) and 10% heat-inactivated FBS (Invitrogen, 10106-169) and kept in a humidified incubator (37° C., 5% CO2). Cells were harvested by centrifugation, washed once with HBSS (Invitrogen, 14180-046), resuspended in HBSS at 1.5×10^6 cells/ml and 0.9×10^4 cells were seeded in 6 μl per well in a 96 well White plate (PerkinElmer, 6005569).
Test compounds were dissolved in DMSO and a 1:3 dilution series (9 steps) was prepared. To generate a dose response curve, 3 μl of fourfold concentrated compound in 4% DMSO/HBSS were added to each cell sample in the 96 well plate resulting in a final DMSO concentration of 1% DMSO. Cells were incubated for one hour in a humidified incubator (37° C., 5% CO2). To each well 3 μl of a fourfold concentrated IL-2 solution (Recombinant human IL-2, Peprotech 200-02; 120 nM solution in HBSS) was added and incubated for 30 minutes at room temperature. Cells were lysed by adding 3 μl of 5× lysis buffer (SureFire lysis buffer; Perkin Elmer, TGRS5S10K) and incubated for 10 minutes at room temperature with gentle shaking
For signal detection by AlphaScreen® technology the SureFire phospho-STAT5 (Tyr694/Tyr699) kit was used according to instructions provided by the manufacturer (Perkin Elmer, TGRS5S10K). Acceptor beads were added as recommended by the manufacturer (Reactivation buffer/Activation buffer/Acceptor beads at a ratio of 40:10:1) and incubated at room temperature for 1.5 hours with gentle shaking Then donor beads were added as recommended (Dilution buffer/Donor beads at a ratio of 20:1) and incubated at room temperature for 1.5 hours with gentle shaking Plates were read on an Envision instrument (Perkin Elmer) with the AlphaScreen protocol. Data were analysed in BioAssay using the nonlinear regression for a sigmoidal dose-response with a variable slope.

SMILES	IC50 [nM]
CN(C)C(=O)Cn1cc(Nc2ncc(Cl)c(N[C@H](CO)c3ccccc3)n2)cn1 [Compound 30]	250 to 1000
O=C(Cn1cc(Nc2ncc(Cl)c(N[C@H](CO)c3ccccc3)n2)cn1)NC1CC1 [Compound 68]	250 to 1000
CNC(=O)Cn1cc(Nc2ncc(Cl)c(N[C@H](CO)c3ccccc3)n2)cn1 [Compound 23, (S)-2-(4-((5-chloro-4-((2-hydroxy-1-phenylethyl)amino)pyrimidin-2-yl)amino)-1H-pyrazol-1-yl)-N-methylacetamide]	250 to 1000
OC[C@@H](Nc1nc(Nc2cn[nH]c2)ncc1Cl)c1ccccc1 [Compound 75]	250 to 1000

Other lines, results leading:

IC50 [nM]	SMILES
250 to 1000	CC(C)NC(=O)Cn1cc(Nc2ncc(Cl)c(N[C@H](CO)c3ccccc3)n2)cn1 [Compound 67]
< 250	NC(=O)Cn1cc(Nc2ncc(Cl)c(N[C@H](CO)c3ccccc3F)n2)cn1 [Compound 78]
